Values quoted from earlier work in patent US20170096549A1, “MULTIVALENT CATION FORMULATIONS OF PARTIALLY DESULFATED HEPARINS” (Cantex Pharmaceuticals, Inc., priority 2014, published 2017).
Where two headings read alike, the source gives them in different places.

Legend:
[1] = target: anti-thrombin III (Homo sapiens, UniProt P01008)
[2] = tested on: anti-coagulant activity
[3] = target: IIa (Homo sapiens, UniProt P00734+P01008)
[4] = target: Xa (Homo sapiens, UniProt P00742)
Xa, sequence (P01008 33-464 partner): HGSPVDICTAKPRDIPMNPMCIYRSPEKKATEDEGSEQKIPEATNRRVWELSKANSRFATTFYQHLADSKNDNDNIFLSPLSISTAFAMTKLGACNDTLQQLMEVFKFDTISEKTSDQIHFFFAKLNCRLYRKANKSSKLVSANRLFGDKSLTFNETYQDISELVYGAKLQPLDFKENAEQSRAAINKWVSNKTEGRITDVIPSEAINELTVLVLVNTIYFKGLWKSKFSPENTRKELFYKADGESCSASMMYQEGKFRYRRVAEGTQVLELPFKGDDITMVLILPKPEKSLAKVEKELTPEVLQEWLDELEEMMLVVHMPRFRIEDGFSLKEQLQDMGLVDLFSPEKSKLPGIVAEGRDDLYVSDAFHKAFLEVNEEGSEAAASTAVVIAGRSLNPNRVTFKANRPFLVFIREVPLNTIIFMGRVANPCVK
Xa, sequence (P00742 235-488 limits assumed): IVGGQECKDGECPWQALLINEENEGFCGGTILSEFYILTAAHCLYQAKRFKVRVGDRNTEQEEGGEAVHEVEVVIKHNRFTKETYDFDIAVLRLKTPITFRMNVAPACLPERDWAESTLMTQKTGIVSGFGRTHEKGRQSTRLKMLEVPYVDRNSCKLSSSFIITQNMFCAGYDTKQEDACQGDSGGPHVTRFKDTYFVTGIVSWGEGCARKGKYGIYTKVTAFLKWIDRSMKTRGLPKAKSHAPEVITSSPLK

anti-thrombin III, sequence (P01008 33-464, species assumed): as the sequence (P01008 33-464 partner) above

Unfractionated heparin
Kd for anti-thrombin III [1]: ~22 µg/mL | Kd ([1]; listed as heparin): 1560 nM | Kd ([1]; listed as unfractionated heparin): ~1560 nM | anti-coagulant activity in the USP anti-coagulant assay [2]: 165-190 U/mg | anti-IIa activity [3]: 165-190 U/mg | anti-Xa activity [4]: 165-190 U/mg
